The target in one assay is T1, menin protein (Homo sapiens, UniProt O00255).
T1 sequence (O00255 1-610): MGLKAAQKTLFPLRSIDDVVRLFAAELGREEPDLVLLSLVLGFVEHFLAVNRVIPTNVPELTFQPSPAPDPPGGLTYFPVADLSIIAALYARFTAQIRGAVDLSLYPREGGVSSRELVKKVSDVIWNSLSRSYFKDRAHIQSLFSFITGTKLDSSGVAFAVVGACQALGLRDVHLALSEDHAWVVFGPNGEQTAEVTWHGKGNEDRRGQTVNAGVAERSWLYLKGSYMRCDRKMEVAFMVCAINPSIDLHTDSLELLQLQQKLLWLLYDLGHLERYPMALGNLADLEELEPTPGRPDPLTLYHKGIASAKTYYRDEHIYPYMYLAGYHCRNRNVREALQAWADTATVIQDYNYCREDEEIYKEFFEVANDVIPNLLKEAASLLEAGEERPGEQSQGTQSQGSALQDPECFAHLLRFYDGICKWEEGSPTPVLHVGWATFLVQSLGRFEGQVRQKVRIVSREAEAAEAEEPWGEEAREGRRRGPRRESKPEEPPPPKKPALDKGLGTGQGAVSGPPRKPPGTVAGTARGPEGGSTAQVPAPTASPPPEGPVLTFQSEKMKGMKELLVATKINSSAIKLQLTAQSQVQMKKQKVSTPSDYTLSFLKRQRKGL
Put plainly: Fluorescence polarization (FP) competitive binding assay, menin binding affinity. The note with it: FP competition with FAM-MM2 probe 2 nM, menin 4 nM, 30 minutes room temperature. The method, then: A fluorescence polarization (FP) competitive binding assay was used to determine the binding affinities of representative menin inhibitors. A FAM labeled fluorescent probe was designed and synthesized based on a MLL1 peptide (FAM-MM2). Equilibrium dissociation constant (Kd) value of FAM-MM2 to menin protein was determined from protein saturation experiments by monitoring the total fluorescence polarization of mixtures composed with the fluorescent probe at a fixed concentration and the protein with increasing concentrations up to full saturation. Serial dilutions of the protein were mixed with FAM-MM2 to a final volume of 200 μl in the assay buffer (PBS with 0.02% Bovine γ-Globulin and 4% DMSO. 0.01% Triton X-100 was added right before assays). Final FAM-MM2 concentration was 2 nM. Plates were incubated at room temperature for 30 minutes with gentle shaking to assure equilibrium. FP values in millipolarization units (mP) were measured using the Infinite M-1000 plate reader (Tecan U.S., Research Triangle Park, N.C.) in Microfluor 1 96-well, black, v-bottom plates (Thermo Scientific, Waltham, Mass.) at an excitation wavelength of 485 nm and an emission wavelength of 530 nm.
The IC50 of representative Compounds of the Disclosure, see Table 3, were determined in a competitive binding experiment. Mixtures of 5 μl of the tested compounds in DMSO and 195 μl of preincubated protein/probe complex solution in the assay buffer were added into assay plates which were incubated at room temperature for 30 minutes with gentle shaking. Final concentration of the menin protein was 4 nM, and final probe concentration is 2 nM. Negative controls containing protein/probe complex only (equivalent to 0% inhibition), and positive controls containing only free probes (equivalent to 100% inhibition), were included in each assay plate. FP values were measured as described above. IC50 values were determined by nonlinear regression fitting of the competition curves.
For orientation: In fluorescence polarisation assays a small probe gives low polarisation when free and higher when bound to something large.

For a further assay, the system named is MV4-11. The assay can be described thus: 7-day proliferation assay (WST-8), cell growth inhibition. Format: cell-based. Particulars: MV4-11 cells, 7 days. As to the method: The effect of representative Compounds of the Disclosure on cell viability was determined in a 7-day proliferation assay. Cells were maintained in the appropriate culture medium with 10% FBS at 37° C. and an atmosphere of 5% CO2.
Cells were seeded in 96-well flat bottom (Corning COSTAR, Corning, NY, cat#3595) at a density of 2,000-3,000 cells/well in 100 μl of culture medium. Compounds were serially diluted in the appropriate medium, and […] the diluted compounds were added to the appropriate wells of the cell plate. After the addition of compounds, the cells were incubated at 37° C. in an atmosphere of 5% CO2 for 7 days. Cell viability was determined using the WST (2-(2-methoxy-4-nitrophenyl)-3-(4-nitrophenyl)-5-(2,4-disulfophenyl)-2H-tetrazolium, monosodium salt) Cell Counting-8 Kit (Dojindo Molecular Technologies, Inc., Rockville, Md.) according to the manufacturers' instructions.
WST-8 reagent was added to each well at a final concentration of 10% (v/v), and then the plates were incubated at 37° C. for 1-2 hours for color development. The absorbance was measured at 450 nm using a SPECTRAmax PLUS plate reader (Molecular Devices, Sunnyvale, Calif.). The readings were normalized to the DMSO-treated cells and the half maximal inhibitory concentration (IC50) was calculated by nonlinear regression (four parameters sigmoid fitted with variable slope, least squares fit, and no constraint) analysis using the GraphPad Prism 5 software (GraphPad Software, La Jolla, Calif.).
A general note: Formazan colour is commonly taken as a measure of viable cells.

By IC50 is commonly meant the concentration that inhibits the measured activity by half. In the case of `C=C(CN1CCOCC1)C(=O)N1CC(S(=O)(=O)c2ccc(N3CC(CN4CCC([C@@](CN5CCC5)(c5cccc(F)c5)[C@H]5CCC[C@@H]5NC(=O)OC)CC4)C3)cc2)C1` [Cpd. No. 9, methyl ((1S,2R)-2-((S)-2-(azetidin-1-yl)-1-(3-fluorophenyl)-1-(1-((1-(4-((1-(2-(morpholinomethyl)acryloyl)azetidin-3-yl)sulfonyl)phenyl)azetidin-3-yl)methyl)piperidin-4-yl)ethyl)cyclopentyl)carbamate], the IC50 at menin protein was 2 nM; in the assay on MV4-11 (Homo sapiens, MV4-11, 168 h), less than 10 nM.

`C=C(CN(CC)CC)C(=O)N1CC(S(=O)(=O)c2ccc(N3CC(CN4CCC([C@@](CN5CCC5)(c5cccc(F)c5)[C@H]5CCC[C@@H]5NC(=O)OC)CC4)C3)cc2)C1` [Cpd. No. 21, methyl ((1S,2R)-2-((S)-2-(azetidin-1-yl)-1-(1-((1-(4-((1-(2-((diethylamino)methyl)acryloyl)azetidin-3-yl)sulfonyl)phenyl)azetidin-3-yl)methyl)piperidin-4-yl)-1-(3-fluorophenyl)ethyl)cyclopentyl)carbamate]: the IC50 at menin protein was 2 nM; in the assay on MV4-11 (Homo sapiens, MV4-11, 168 h) it was less than 10 nM.

Take `C=C(CN1CCC1)C(=O)N1CC(S(=O)(=O)c2ccc(N3CC(CN4CCC([C@@](CN5CCC5)(c5cccc(F)c5)[C@H]5CCC[C@@H]5NC(=O)OC)CC4)C3)cc2)C1` [Cpd. No. 22, methyl ((1S,2R)-2-((S)-2-(azetidin-1-yl)-1-(1-((1-(4-((1-(2-(azetidin-1-ylmethyl)acryloyl)azetidin-3-yl)sulfonyl)phenyl)azetidin-3-yl)methyl)piperidin-4-yl)-1-(3-fluorophenyl)ethyl)cyclopentyl)carbamate]: the IC50 on menin protein is 2 nM; with MV4-11 (Homo sapiens, MV4-11, 168 h), less than 10 nM.

As for `COC(=O)N[C@H]1CCC[C@@H]1[C@](CN1CCC1)(c1cccc(F)c1)C1CCN(CC2CN(c3ccc(S(=O)(=O)C4CN(C(=O)/C=C/CN5CCOCC5)C4)cc3)C2)CC1` [Cpd. No. 25, methyl ((1S,2R)-2-((S)-2-(azetidin-1-yl)-1-(3-fluorophenyl)-1-(1-((1-(4-((1-((E)-4-morpholinobut-2-enoyl)azetidin-3-yl)sulfonyl)phenyl)azetidin-3-yl)methyl)piperidin-4-yl)ethyl)cyclopentyl)carbamate], the IC50 on menin protein is 7 nM; in the assay on MV4-11 (Homo sapiens, MV4-11, 168 h), less than 10 nM.

With `COC(=O)N[C@H]1CCC[C@@H]1[C@](CN1CCC1)(c1cccc(F)c1)C1CCN(CC2CN(c3ccc(S(=O)(=O)C4CN(C(=O)/C=C/CN5CCC5)C4)cc3)C2)CC1` [Cpd. No. 173, Methyl ((1S,2R)-2-((S)-2-(azetidin-1-yl)-1-(1-((1-(4-((1-((E)-4-(azetidin-1-yl)but-2-enoyl)azetidin-3-yl)sulfonyl)phenyl)azetidin-3-yl)methyl)piperidin-4-yl)-1-(3-fluorophenyl)ethyl)cyclopentyl)carbamate], the 50% inhibitory concentration (IC50) was 2 nM at menin protein and less than 10 nM in the assay with MV4-11 (Homo sapiens, MV4-11, 168 h).

As to `COC(=O)N[C@H]1CCC[C@@H]1[C@](CN1CCC1)(c1cccc(F)c1)C1CCN(CC2CN(c3ccc(C(F)(F)C4CN(C(=O)/C=C/CN5CCCCC5)C4)cc3)C2)CC1` [compound 71], the IC50 at menin protein was 2 nM; in the assay on MV4-11 (Homo sapiens, MV4-11, 168 h), less than 50 nM.

For `C=CC(=O)Nc1cncc(S(=O)(=O)c2ccc(N3CC(F)(CN4CCC([C@@](CN5CCC5)(c5cccc(F)c5)[C@H]5CCC[C@@H]5NC(=O)OC)CC4)C3)c(F)c2)c1` [compound 86], the IC50 on menin protein was 2 nM; with MV4-11 it was less than 50 nM.

With `COC(=O)N[C@H]1CCC[C@@H]1[C@](CN1CCC1)(c1cccc(F)c1)C1CCN(CC2CN(c3ccc(S(=O)(=O)C4CN(C(=O)/C=C/CN5CCC(F)CC5)C4)cc3)C2)CC1` [compound 100], the IC50 on menin protein is 4 nM; in the assay on MV4-11 (Homo sapiens, MV4-11, 168 h), less than 10 nM.

With `COC(=O)N[C@H]1CCC[C@@H]1[C@](CN1CCC1)(c1cccc(F)c1)C1CCN(CC2CN(c3ccc(S(=O)(=O)C4CN(C(=O)/C=C/CN5CCC(F)(F)CC5)C4)cc3)C2)CC1` [compound 103], the IC50 was 2 nM on menin protein and less than 10 nM in the assay on MV4-11 (Homo sapiens, MV4-11, 168 h).
